Drawing on article PMC9371267 (PLoS Biology, 2022), this text covers Emax for one compound.

Positions count from the first letter of the chain named.

Common to all, as to type: cell-based
Test [1] has as its target T1, GALR2 R274^7.35×34A mutant (Homo sapiens, UniProt O43603, R274A).
T1 construct: expressed in transfected cells; host or cells: HEK293A
T1 sequence (O43603 1-387 R274A): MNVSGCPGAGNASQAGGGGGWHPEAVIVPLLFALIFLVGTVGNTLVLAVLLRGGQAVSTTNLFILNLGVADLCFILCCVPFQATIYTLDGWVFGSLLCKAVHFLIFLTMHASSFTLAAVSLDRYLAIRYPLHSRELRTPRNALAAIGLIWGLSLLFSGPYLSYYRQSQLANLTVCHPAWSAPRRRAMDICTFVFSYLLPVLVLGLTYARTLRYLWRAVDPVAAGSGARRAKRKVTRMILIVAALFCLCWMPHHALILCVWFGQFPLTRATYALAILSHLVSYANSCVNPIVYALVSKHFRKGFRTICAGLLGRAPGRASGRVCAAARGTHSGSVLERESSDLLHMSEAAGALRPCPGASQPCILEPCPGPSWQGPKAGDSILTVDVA
In words: NanoBiT-based Gq activation assay, R274^7.35×34A. As to conditions: HEK293-A. On the procedure: (§1) After an incubation for 1 day, the transfected cells were harvested, pelleted with centrifugation, and suspended in 2 mL of Hank’s balanced saline solution containing 0.01% bovine serum albumin (BSA fatty acid–free grade, SERVA) and 5 mM HEPES (pH 7.4) (assay buffer). The cell suspension was dispensed in a white 96-well plate at a volume of 80 μl per well and mixed with 20 μl of 50 μM coelenterazine (custom-synthesized by Amadis Chemical) diluted in the assay buffer. After 2-h incubation at room temperature, the plate was measured for baseline luminescence (SpectraMax L, Molecular Devices). […] Kinetics data points from 5 min to 10 min were averaged and normalized to the initial count and used as a G-protein activation index. The G-protein activation signals were fitted to a 4-parameter sigmoidal concentration-response curve (GraphPad Prism8), and pEC50 values (negative logarithmic values of EC50 values) and Span values (“Top”–“Bottom”) were obtained. For individual experiments, we calculated Emax by normalizing Span to the WT GALR2 and ΔpEC50 by subtracting pEC50 of the WT GALR2 performed in parallel. We also calculated Emax/EC50 of GALR2 mutants relative to that of GALR2 WT, a dimensionless parameter known as relative intrinsic activity (RAi) and used its log-transformed value (Log RAi) to denote receptor activity.

A further test has as its target T2, GALR2 H102^3.29A mutant (Homo sapiens, UniProt O43603, H102A).
T2 construct: expressed in transfected cells; host or cells: HEK293A
T2 sequence (O43603 1-387 H102A): T1 sequence (O43603 1-387 R274A) with H102A, A274R
In words: NanoBiT-based Gq activation assay, H102^3.29A. Particulars: HEK293-A; HEK293A; expression ~WT (1:10); normalized to WT (1:1); mean ± SEM, n = 3; ** p < 0.01 vs expression-matched WT. On the procedure:
as §1

For a further test, the target named is T3, GALR2 V174^ECL2A mutant (Homo sapiens, UniProt O43603, V174A).
T3 construct: expressed in transfected cells; host or cells: HEK293A
T3 sequence (O43603 1-387 V174A): T1 sequence (O43603 1-387 R274A) with V174A, A274R
In words: NanoBiT-based Gq activation assay, V174^ECL2A. Particulars: HEK293-A; HEK293A; expression ~WT (1:5); normalized to WT (1:1); mean ± SEM, n = 3; ns p > 0.05 vs expression-matched WT. The protocol:
as §1

In a further test the target is T4, GALR2 L266^ECL3A mutant (Homo sapiens, UniProt O43603, L266A).
T4 construct: expressed in transfected cells; host or cells: HEK293A
T4 sequence (O43603 1-387 L266A): T1 sequence (O43603 1-387 R274A) with L266A, A274R
In words: NanoBiT-based Gq activation assay, L266^ECL3A. Particulars: HEK293-A; HEK293A; expression ~WT (1:1); normalized to WT (1:1); mean ± SEM, n = 3; ns p > 0.05 vs expression-matched WT. On the procedure: as §1

Test [2] deals with T5, GALR2 R184^5.35×36V mutant (Homo sapiens, UniProt O43603, R184V).
T5 construct: expressed in transfected cells; host or cells: HEK293A
T5 sequence (O43603 1-387 R184V): T1 sequence (O43603 1-387 R274A) with R184V, A274R
As to the kind of experiment: NanoBiT-based Gq activation assay, R184^5.35×36V. As to conditions: HEK293-A; HEK293A; expression ~WT (1:5); normalized to WT (1:1); mean ± SEM, n = 3; ns p > 0.05 vs expression-matched WT. The protocol: as §1

Take `CC(C)C[C@H](NC(=O)CNC(=O)[C@H](CC(N)=O)NC(=O)[C@H](CCCCN)NC(=O)[C@H](CC(=O)O)NC(=O)[C@H](CO)NC(=O)[C@H](Cc1ccccc1)NC(=O)[C@H](CO)NC(=O)[C@H](CCCNC(=N)N)NC(=O)[C@H](Cc1c[nH]cn1)NC(=O)[C@H](CC(N)=O)NC(=O)CNC(=O)[C@@H](NC(=O)[C@H](C)NC(=O)[C@H](Cc1c[nH]cn1)NC(=O)[C@@H]1CCCN1C(=O)CNC(=O)[C@H](CC(C)C)NC(=O)[C@H](CC(C)C)NC(=O)[C@H](Cc1ccc(O)cc1)NC(=O)CNC(=O)[C@H](C)NC(=O)[C@H](CO)NC(=O)[C@H](CC(N)=O)NC(=O)[C@H](CC(C)C)NC(=O)[C@@H](NC(=O)[C@H](Cc1c[nH]c2ccccc12)NC(=O)CN)[C@@H](C)O)C(C)C)C(=O)N[C@H](C(=O)N[C@@H](CO)C(=O)O)[C@@H](C)O` [galanin]: the Emax in test [1] was found to be 74.7 ± 5.9%; on GALR2 H102^3.29A mutant it was 17.4 ± 2.4%; at GALR2 V174^ECL2A mutant, 72.8 ± 11.3%; at GALR2 L266^ECL3A mutant, 90.9 ± 10.5%; in test [2] it was 60 ± 6%.

The Emax is the size of the effect at its maximum, as opposed to the concentration needed.
